Experimental data as given in US8278358B2, “Lipoic acid derivatives” (Omnica GmbH, priority 2006, dated 2012).

How the values were obtained:
[1] = Reducing power assay (reduction of Iron-III to Iron-II); format: biochemical
Method: The assay is based on the reduction of Iron-III to Iron-II. Results are expressed as % reduction when compared to the control which reduced all Iron-III at a concentration of 5 mg/mL.

[2] = Protection of lutein esters, milling/mixing method, 60° C. for 4 hours; format: physicochemical; settings: mix method
Method: 300 mg lutein esters and 30 mg α-Tocopherol were added to a mortar, completely milled and maintained at a temperature of 60° C. for 4 hours. The lutein content was measured with the UV-Visible spectrophotometric method as described above. […] The lutein content was measured with a UV-Visible spectrophotometer as described above. 300 mg lutein esters and a predetermined amount of lipoic acid were placed in a mortar, milled and then subjected to an elevated temperature of 60° C. for 4 hours. The lutein content was determined by the UV-Visible spectrophotometric method described above.

[3] = Inhibition of the autooxidation of linoleic acid; format: biochemical; settings: 50° C., up to 72 hours
Method: As a positive control (full inhibition) 10 mM butyl-hydroxytoluene (BHT)/L was introduced. Each sample was prepared in 3 replicates. […] Each sample was prepared in 3 replicates. Samples were incubated with light protection at 50° C.

CaCo-2 cells = assay: CACO-2 absorption test (Free and Total LA/DHLA in cells); format: in vitro ADME
[4] = Stability in CaCo-2 incubation medium (Free and Total LA/DHLA in medium); format: in vitro ADME; settings: for Total LA in medium (after NaBH4 reduction) / Free LA in medium: 1 mg LA/ml or 1.46 mg LAORN/ml medium
Method: For stability investigations, the incubation medium was incubated at 37° C. for 1 hour. Thereafter, the medium was centrifuged and used for further analysis.

Compound | % Reduction compared to Control ([1]; Conc. 1 mg/mL) | % Reduction compared to Control ([1]; Conc. 5 mg/mL) | % Reduction compared to Control ([1]; Conc. 10 mg/mL) | Residual Ratio/% of lutein esters ([2]; 300 mg lutein esters, Dosage of LA 3 mg, Content of LA 1.0%) | Residual Ratio/% of lutein esters ([2]; Dosage of LA 15 mg, Content of LA 4.8%) | Residual Ratio/% of lutein esters ([2]; Dosage of LA 30 mg, Content of LA 9.1%) | Residual Ratio/% of lutein esters ([2]; Dosage of LA 60 mg, Content of LA 16.7%) | Residual Ratio/% of lutein esters ([2]; Dosage of LA 150 mg, Content of LA 33.3%) | Residual Ratio/% of lutein esters ([2]; Dosage of LA 300 mg, Content of LA 50.0%) | protection against autooxidation of linoleic acid ([3]; FIG. 7: 5 mM LA/L, 5 mM ORN/L, 5 mM LA/L + 5 mM ORN/L, 10 mM LAORN/L) | protection against autooxidation of linoleic acid ([3]; FIG. 8: 50 mM LA/L, 50 mM ORN/L, 50 mM LA/L + 50 mM ORN/L, 100 mM LAORN/L) | Total LA in cells (after NaBH4 reduction) (CaCo-2 cells; CaCo-2 cells incubated 30 min) | Total LA in cells (after NaBH4 reduction) (CaCo-2 cells; CaCo-2 cells incubated 60 min) | Total LA in medium (after NaBH4 reduction) ([4]; 60 min) | Free LA in medium ([4]; 60 min, 37° C.) | Free LA in medium ([4]; Initial) | Total LA in medium (after NaBH4 reduction) ([4]; Initial) | stability under the test assay conditions ([4]; incubation medium, 37° C., 1 hour, recovery after reduction to DHLA)
[BH4-].[Na+] [Control, NaBH4] | 22.7% | 100.0% | 100.0% | – | – | – | – | – | – | – | – | – | – | – | – | – | – | –
O=C(O)CCCCC1CCSS1 (stereo not drawn) [LA, 1,2-dithiolane-3-pentanoic acid] | 7.2% | 22.2% | 24.7% | 42.7% | 46.5% | 79.5% | 80.1% | 79.4% | 82.4% | full protection | full protection | bld | bld | bld | 0.74 mg/mL | 0.89 mg/mL | bld | stable
